The target in one assay is T1, ADP/ATP translocase 3 (Homo sapiens, UniProt P12236).
T1 sequence (P12236 whole entry): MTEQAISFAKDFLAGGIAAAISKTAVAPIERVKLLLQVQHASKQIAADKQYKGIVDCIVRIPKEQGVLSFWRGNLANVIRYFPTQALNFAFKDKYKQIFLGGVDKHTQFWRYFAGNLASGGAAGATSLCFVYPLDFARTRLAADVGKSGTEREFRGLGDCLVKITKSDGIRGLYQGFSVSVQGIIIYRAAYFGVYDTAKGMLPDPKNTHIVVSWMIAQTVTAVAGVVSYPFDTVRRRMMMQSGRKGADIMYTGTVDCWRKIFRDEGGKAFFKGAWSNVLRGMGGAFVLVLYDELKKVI

The target in assay [1] is Cyclin-dependent kinase 3 (Homo sapiens, UniProt Q00526).
Cyclin-dependent kinase 3, sequence (Q00526 whole entry): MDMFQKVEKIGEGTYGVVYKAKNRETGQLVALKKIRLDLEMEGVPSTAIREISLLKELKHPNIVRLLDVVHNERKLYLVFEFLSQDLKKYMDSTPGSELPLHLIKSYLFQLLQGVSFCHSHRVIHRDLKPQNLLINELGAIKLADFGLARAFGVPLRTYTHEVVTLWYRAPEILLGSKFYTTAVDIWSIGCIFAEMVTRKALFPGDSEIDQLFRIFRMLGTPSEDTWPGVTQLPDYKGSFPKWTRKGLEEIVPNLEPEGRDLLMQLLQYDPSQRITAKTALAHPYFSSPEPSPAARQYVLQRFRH
The target in the next assay is T2, dCTP pyrophosphatase 1 (Homo sapiens, UniProt Q9H773).
T2 sequence (Q9H773 whole entry): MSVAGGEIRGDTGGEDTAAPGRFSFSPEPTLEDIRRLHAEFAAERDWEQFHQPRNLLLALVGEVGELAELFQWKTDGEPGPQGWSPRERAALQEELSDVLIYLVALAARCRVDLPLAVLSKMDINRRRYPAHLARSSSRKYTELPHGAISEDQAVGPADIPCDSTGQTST

Assay [2] addresses Casein kinase I isoform gamma-1 (Homo sapiens, UniProt Q9HCP0).
The target in assay [3] is Serine/threonine-protein kinase 26 (Homo sapiens, UniProt Q9P289).
Serine/threonine-protein kinase 26, sequence (Q9P289 whole entry, the tested form may be a part): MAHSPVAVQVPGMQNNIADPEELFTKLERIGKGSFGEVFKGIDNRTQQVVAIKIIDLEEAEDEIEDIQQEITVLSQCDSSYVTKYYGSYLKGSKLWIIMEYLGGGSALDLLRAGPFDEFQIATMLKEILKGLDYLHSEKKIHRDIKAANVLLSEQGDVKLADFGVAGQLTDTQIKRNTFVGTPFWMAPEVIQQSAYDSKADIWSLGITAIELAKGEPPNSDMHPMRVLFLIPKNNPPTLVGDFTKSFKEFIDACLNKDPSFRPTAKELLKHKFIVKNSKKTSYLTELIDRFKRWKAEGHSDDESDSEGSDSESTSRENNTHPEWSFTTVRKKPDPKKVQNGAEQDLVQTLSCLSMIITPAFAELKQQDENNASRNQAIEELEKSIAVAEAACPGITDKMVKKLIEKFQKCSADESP
Assay [4] addresses Epithelial discoidin domain-containing receptor 1 (Homo sapiens, UniProt Q08345).
Assay [5] concerns the target Serine/threonine-protein kinase N1 (Homo sapiens, UniProt Q16512).
The target of assay [6] is T3, Phenylalanine--tRNA ligase beta subunit (Homo sapiens, UniProt Q9NSD9).
T3 sequence (Q9NSD9 whole entry): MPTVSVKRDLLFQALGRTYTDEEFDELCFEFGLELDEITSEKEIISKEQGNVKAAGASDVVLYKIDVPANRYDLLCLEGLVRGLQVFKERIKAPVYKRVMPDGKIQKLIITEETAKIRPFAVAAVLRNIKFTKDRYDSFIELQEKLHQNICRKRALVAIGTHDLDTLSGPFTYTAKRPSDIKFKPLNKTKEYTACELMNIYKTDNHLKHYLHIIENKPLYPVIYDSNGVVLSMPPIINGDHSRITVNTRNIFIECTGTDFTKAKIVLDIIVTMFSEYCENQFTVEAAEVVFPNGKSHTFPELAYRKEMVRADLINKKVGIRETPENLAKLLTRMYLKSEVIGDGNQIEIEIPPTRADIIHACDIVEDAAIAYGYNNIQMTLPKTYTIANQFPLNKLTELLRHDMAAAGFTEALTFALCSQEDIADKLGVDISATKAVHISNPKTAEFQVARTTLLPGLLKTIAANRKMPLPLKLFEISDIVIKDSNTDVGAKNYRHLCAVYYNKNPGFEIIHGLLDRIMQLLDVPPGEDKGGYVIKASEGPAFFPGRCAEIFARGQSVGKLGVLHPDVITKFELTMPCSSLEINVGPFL

Assay [7] has as its target Serine/threonine-protein kinase N2 (Homo sapiens, UniProt Q16513).
Assay [8] has as its target T4, Cysteine--tRNA ligase, cytoplasmic (Homo sapiens, UniProt P49589).
T4 sequence (P49589 whole entry): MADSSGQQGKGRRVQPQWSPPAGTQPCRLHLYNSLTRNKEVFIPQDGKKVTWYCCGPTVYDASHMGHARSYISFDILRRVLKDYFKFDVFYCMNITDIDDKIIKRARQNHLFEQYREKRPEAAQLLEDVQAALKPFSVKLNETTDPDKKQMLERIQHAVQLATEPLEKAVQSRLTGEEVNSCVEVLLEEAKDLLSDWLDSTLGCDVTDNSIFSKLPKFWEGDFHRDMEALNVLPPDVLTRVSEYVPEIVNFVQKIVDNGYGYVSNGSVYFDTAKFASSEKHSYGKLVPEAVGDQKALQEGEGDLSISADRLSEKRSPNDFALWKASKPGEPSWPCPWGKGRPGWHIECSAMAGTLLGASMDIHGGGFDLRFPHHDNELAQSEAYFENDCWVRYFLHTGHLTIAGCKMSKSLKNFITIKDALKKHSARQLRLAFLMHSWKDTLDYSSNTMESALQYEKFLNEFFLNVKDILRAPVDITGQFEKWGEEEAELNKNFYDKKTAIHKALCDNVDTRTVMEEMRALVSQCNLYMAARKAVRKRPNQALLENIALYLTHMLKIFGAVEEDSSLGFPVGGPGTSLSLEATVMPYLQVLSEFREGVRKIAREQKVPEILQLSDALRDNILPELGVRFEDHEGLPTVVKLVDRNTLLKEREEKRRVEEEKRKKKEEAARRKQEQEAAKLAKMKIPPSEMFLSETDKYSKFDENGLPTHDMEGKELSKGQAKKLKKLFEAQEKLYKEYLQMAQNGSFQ

Our source for the Kd values is ChEMBL document CHEMBL3991601, “The target landscape of clinical kinase drugs” (Science, 2017).

One may read the Kd as the free concentration of one partner at which half of the binding sites on the other are occupied at equilibrium, for simple one-to-one binding.

Calls of active or inactive are those of the source.
Further: in the data inactive means no Kd found up to 30 µM.

Casein kinase I isoform gamma-1, sequence (Q9HCP0 whole entry, canonical isoform): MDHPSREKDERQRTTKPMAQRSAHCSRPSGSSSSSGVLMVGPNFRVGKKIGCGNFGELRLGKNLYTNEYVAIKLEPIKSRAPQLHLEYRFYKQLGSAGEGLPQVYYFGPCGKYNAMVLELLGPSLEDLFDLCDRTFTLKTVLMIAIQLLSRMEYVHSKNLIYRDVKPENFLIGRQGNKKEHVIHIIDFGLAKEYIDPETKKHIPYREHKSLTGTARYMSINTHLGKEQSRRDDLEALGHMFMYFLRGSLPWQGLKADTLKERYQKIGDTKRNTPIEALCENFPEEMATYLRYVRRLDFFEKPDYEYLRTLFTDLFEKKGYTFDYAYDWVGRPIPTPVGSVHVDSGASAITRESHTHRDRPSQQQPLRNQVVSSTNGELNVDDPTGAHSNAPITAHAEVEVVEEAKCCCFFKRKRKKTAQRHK
Serine/threonine-protein kinase N2, sequence (Q16513 whole entry): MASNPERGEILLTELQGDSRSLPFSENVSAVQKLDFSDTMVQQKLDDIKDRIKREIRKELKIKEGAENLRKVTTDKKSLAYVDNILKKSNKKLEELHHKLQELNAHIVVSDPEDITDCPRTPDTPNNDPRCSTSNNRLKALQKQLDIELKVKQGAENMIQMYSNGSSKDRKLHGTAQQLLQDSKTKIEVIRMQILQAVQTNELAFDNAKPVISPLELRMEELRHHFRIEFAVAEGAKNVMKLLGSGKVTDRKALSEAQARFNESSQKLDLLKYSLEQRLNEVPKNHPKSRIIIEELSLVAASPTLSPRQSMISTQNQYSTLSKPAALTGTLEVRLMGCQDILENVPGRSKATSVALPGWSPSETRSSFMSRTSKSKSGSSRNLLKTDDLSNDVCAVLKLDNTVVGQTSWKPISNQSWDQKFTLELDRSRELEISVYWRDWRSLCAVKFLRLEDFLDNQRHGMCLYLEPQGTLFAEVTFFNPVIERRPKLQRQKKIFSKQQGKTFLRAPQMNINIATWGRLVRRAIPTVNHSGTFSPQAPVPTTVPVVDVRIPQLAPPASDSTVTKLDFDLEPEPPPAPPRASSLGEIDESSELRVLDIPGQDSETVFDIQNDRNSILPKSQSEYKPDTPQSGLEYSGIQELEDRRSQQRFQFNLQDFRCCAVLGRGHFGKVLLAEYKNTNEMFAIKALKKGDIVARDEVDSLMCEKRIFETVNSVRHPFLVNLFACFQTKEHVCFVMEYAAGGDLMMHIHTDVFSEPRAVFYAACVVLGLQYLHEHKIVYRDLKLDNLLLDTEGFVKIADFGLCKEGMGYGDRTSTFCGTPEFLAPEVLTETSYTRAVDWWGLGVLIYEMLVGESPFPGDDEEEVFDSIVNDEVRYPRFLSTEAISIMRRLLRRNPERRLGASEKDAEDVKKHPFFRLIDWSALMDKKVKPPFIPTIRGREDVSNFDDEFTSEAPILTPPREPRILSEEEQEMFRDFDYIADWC
Serine/threonine-protein kinase N1, sequence (Q16512 whole entry): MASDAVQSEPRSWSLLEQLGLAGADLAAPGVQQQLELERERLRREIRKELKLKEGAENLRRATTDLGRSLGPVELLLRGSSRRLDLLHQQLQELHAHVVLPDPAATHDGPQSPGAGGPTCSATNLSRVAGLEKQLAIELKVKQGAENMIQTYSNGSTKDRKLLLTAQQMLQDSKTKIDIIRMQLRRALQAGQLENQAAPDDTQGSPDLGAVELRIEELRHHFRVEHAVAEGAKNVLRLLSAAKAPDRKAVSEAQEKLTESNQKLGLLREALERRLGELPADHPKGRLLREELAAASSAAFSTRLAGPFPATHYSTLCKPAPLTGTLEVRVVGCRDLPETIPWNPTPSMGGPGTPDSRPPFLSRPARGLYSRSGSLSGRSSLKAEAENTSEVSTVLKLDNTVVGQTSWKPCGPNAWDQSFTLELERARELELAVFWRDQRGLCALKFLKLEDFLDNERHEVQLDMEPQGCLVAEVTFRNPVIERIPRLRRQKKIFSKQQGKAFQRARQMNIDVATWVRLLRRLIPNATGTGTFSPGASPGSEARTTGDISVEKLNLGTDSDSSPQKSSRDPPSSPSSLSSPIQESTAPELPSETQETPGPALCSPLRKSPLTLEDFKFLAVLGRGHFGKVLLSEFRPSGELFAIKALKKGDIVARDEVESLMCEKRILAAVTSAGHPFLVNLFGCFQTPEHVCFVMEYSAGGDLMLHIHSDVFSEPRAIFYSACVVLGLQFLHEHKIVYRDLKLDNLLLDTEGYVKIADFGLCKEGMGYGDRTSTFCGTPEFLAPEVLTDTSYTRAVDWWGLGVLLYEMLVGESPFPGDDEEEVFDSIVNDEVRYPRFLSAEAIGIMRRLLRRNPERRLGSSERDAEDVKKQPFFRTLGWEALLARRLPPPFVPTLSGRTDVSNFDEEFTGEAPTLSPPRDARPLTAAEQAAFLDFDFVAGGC
Epithelial discoidin domain-containing receptor 1, sequence (Q08345 whole entry, the tested form may be a part): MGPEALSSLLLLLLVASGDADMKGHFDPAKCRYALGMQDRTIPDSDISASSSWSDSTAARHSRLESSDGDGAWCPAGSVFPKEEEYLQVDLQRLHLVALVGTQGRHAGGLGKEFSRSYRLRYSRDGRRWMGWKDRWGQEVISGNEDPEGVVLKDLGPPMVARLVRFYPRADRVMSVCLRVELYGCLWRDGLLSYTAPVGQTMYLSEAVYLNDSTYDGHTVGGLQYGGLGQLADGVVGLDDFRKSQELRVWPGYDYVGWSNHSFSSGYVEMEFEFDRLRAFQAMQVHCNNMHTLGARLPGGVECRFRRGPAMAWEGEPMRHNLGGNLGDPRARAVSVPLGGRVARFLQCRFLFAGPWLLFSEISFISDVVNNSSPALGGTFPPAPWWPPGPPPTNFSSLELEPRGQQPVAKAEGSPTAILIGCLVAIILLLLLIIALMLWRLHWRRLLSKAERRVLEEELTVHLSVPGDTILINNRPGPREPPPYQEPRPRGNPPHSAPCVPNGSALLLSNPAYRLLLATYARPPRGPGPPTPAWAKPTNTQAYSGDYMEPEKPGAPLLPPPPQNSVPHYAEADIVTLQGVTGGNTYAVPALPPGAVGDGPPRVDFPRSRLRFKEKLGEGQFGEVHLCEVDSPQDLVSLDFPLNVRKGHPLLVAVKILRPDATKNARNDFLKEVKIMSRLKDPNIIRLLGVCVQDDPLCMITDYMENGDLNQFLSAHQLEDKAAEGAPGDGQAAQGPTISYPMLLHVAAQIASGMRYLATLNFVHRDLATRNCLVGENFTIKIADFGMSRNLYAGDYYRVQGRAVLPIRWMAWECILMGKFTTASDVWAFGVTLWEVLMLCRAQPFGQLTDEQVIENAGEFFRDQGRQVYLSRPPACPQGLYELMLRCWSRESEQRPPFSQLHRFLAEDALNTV

For `O=C1NC(=O)/C(=C/c2ccc3nccc(-c4ccncc4)c3c2)S1` [GSK-1059615], the Kd at ADP/ATP translocase 3 is > 30 µM (inactive); in [1], > 30 µM (inactive); on dCTP pyrophosphatase 1, > 30 µM (inactive); in [2], 17.5 µM (active); in assay [3] it was > 30 µM (inactive); in assay [4] it was > 30 µM (inactive). Also, the Kd in assay [5], in [6] and in assay [7] was > 30 µM (inactive) each time.
Regarding `Cc1cn(-c2cc(NC(=O)c3ccc(C)c(Nc4nccc(-c5cccnc5)n4)c3)cc(C(F)(F)F)c2)cn1` [NILOTINIB], the Kd (on ADP/ATP translocase 3; on dCTP pyrophosphatase 1; in assay [8]; in [6]) was > 30 µM (inactive) in each case.
In the case of `C=CC(=O)N1CCC(Oc2cc3c(Nc4ccc(Cl)c(Cl)c4F)ncnc3cc2OC)CC1` [POZIOTINIB], the Kd (at ADP/ATP translocase 3; in assay [1]; at dCTP pyrophosphatase 1; in assay [2]; in assay [3]; in assay [4]) was > 30 µM (inactive) throughout. For the same compound, the Kd in [5], in assay [6] and in assay [7] was > 30 µM (inactive) each time.
For the compound `Cn1cc(-c2ccc3nnc(C(F)(F)c4ccc5ncccc5c4)n3n2)cn1` [JNJ-38877605], the Kd (at ADP/ATP translocase 3; in [1]; at dCTP pyrophosphatase 1; in [2]; in assay [3]; in [4]) was > 30 µM (inactive) in each case. In addition, the Kd in [5], in assay [6] and in [7] was > 30 µM (inactive) throughout.
As for `Cc1c(F)cc(C(=O)NC2CC2)cc1-c1ccc(C(=O)NCC(C)(C)C)cn1` [LOSMAPIMOD], the Kd (on ADP/ATP translocase 3; in [1]; on dCTP pyrophosphatase 1; in [2]; in assay [3]; in assay [4]) was > 30 µM (inactive) each time. Further, the Kd in [5], in assay [6] and in [7] was > 30 µM (inactive) in each case.
As to `Nc1nc(N)c2nc(-c3cccc(O)c3)c(-c3cccc(O)c3)nc2n1` [TG100-115], the Kd (at ADP/ATP translocase 3; on dCTP pyrophosphatase 1; in assay [8]; in assay [6]) was > 30 µM (inactive) throughout.
Turning to `CN1CCN(c2ccc3nc(-c4c(N)c5c(F)cccc5[nH]c4=O)[nH]c3c2)CC1` [DOVITINIB], the Kd (at ADP/ATP translocase 3; at dCTP pyrophosphatase 1; in assay [8]; in assay [6]) was > 30 µM (inactive) in each case.
Regarding `COc1cc(N2CCC(N3CCN(C)CC3)CC2)ccc1Nc1ncnc(Nc2ccccc2S(=O)(=O)C(C)C)n1` [ASP-3026], the Kd at ADP/ATP translocase 3 is > 30 µM (inactive); in assay [1], > 30 µM (inactive); on dCTP pyrophosphatase 1, > 30 µM (inactive); in assay [2], > 30 µM (inactive); in [3], > 30 µM (inactive); in assay [4], 4.04 µM (active). Besides, the Kd in assay [5], in assay [6] and in assay [7] was > 30 µM (inactive) throughout.
As for `CNC(=O)c1ccc(C)c(-n2c(C)cc(OCc3ccc(F)cc3F)c(Br)c2=O)c1` [PH-797804], the Kd (at ADP/ATP translocase 3; in assay [1]; on dCTP pyrophosphatase 1; in [2]; in [3]; in assay [4]) was > 30 µM (inactive) each time. The Kd in assay [5], in [6] and in assay [7] was > 30 µM (inactive) throughout.
For `C[C@@H](Nc1cc(F)cc(F)c1)c1cc(C(=O)N(C)C)cc2c(=O)cc(N3CCOCC3)oc12` [AZD-8186], the Kd (on ADP/ATP translocase 3; in assay [1]; at dCTP pyrophosphatase 1; in assay [2]; in assay [3]; in [4]) was > 30 µM (inactive) each time. Moreover, the Kd in assay [5], in assay [6] and in assay [7] was > 30 µM (inactive) in each case.
As to `CCn1c(-c2nonc2N)nc2c(C#CC(C)(C)O)ncc(OC[C@H]3CCCNC3)c21` [GSK-690693], the Kd is > 30 µM (inactive) at ADP/ATP translocase 3, 0.573 µM (active) on dCTP pyrophosphatase 1, > 30 µM (inactive) in [8] and > 30 µM (inactive) in [6].
On to `Cn1ncc(Cl)c1-c1cc(C(=O)N[C@H](CN)Cc2cccc(F)c2)sc1Cl` [AFURESERTIB], for which the Kd (on ADP/ATP translocase 3; in assay [1]; on dCTP pyrophosphatase 1; in [2]; in [3]; in assay [4]) was > 30 µM (inactive) each time. In addition, the Kd is 0.88 µM (active) in assay [5], > 30 µM (inactive) in assay [6] and > 30 µM (inactive) in [7].
In the case of `COC(=O)[C@@]1(O)C[C@H]2O[C@]1(C)n1c3ccccc3c3c4c(c5c6ccccc6n2c5c31)C(=O)NC4` [K-252A], the Kd at ADP/ATP translocase 3 was > 30 µM (inactive); in [1] it was 0.032 µM (active); at dCTP pyrophosphatase 1, > 30 µM (inactive); in [2], > 30 µM (inactive); in [3] it was > 30 µM (inactive); in assay [4], > 30 µM (inactive). Moreover, the Kd was 0.264 µM (active) in [5], > 30 µM (inactive) in [6] and 0.361 µM (active) in assay [7].
In the case of `C1=C/COCc2cc(ccc2OCCN2CCCC2)Nc2nccc(n2)-c2cccc(c2)COC/1` [PACRITINIB], the Kd was > 30 µM (inactive) on ADP/ATP translocase 3; > 30 µM (inactive) in [1]; > 30 µM (inactive) at dCTP pyrophosphatase 1; > 30 µM (inactive) in [2]; > 30 µM (inactive) in assay [3]; 71.5 µM (active) in assay [4]. Moreover, the Kd in assay [5], in [6] and in assay [7] was > 30 µM (inactive) throughout.
`Cn1cc(-c2ccc(F)c(C(F)(F)F)c2)nc1C1CCN(c2ncnc3[nH]ncc23)CC1` [LY-2584702]: the Kd (on ADP/ATP translocase 3; in assay [1]; on dCTP pyrophosphatase 1; in [2]; in assay [3]; in assay [4]) was > 30 µM (inactive) throughout. The Kd in assay [5], in [6] and in assay [7] was > 30 µM (inactive) throughout.
